Measurements published in ChEMBL document CHEMBL1201862, “PubChem BioAssay data set” (2004).
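Step 1: Grow cells in 96-well plates. Step 2: Expose to compound for 48 hours at 5 concentrations. Step 3: Interpolate endpoints linearly; if unreached, use highest concentration. At the GI50, growth is halved.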 The source made the active and inactive calls. No stated cut-off is given here; in the data, active = GI50 up to about 1.1 µM and inactive = higher. Square brackets hold non-standard residues; d marks the D form. Peptide text beside a SMILES is read from it. * marks the point of attachment. Tyr(3-Br) = N[C@@H](Cc1ccc(O)c(Br)c1)C(=O)O; Boc = CC(C)(C)OC(=O)*

What was measured:
Assay in all cases: inhibition of tumour cell growth, NCI panel, 48 h
[1] = tested on: OVCAR-8
[2] = tested on: ACHN
[3] = tested on: OVCAR-3
[4] = tested on: SN12C
[5] = tested on: M14
[6] = tested on: HCC 2998
[7] = tested on: MDA-MB-231
[8] = tested on: UO-31
[9] = tested on: NCI-H522
[10] = tested on: IGROV-1
[11] = tested on: HT-29
[12] = tested on: TK-10
[13] = tested on: NCI-H460
[14] = tested on: SF-268
[15] = tested on: A549
[16] = tested on: SK-OV-3
[17] = tested on: SF-539
[18] = tested on: HCT-15
[19] = tested on: HOP-92
[20] = tested on: CCRF-CEM
[21] = tested on: UACC-257
[22] = tested on: K562
[23] = tested on: SNB-19
[24] = tested on: NCI-H23
[25] = tested on: BT-549
[26] = tested on: MDA-MB-435
[27] = tested on: CAKI-1
[28] = tested on: RPMI-8226
[29] = tested on: HCT-116
[30] = tested on: Hs-578T
[31] = tested on: COLO 205
[32] = tested on: SF-295
[33] = tested on: DU-145
[34] = tested on: EKVX
[35] = tested on: UACC-62
[36] = tested on: SNB-75
[37] = tested on: SK-MEL-28
[38] = tested on: MCF7
[39] = tested on: T47D
[40] = tested on: SW-620
[41] = tested on: RXF 393
[42] = tested on: OVCAR-4
[43] = tested on: U-251
[44] = tested on: HL-60
[45] = tested on: SK-MEL-5
[46] = tested on: SR
[47] = tested on: KM12
[48] = tested on: NCI/ADR-RES
[49] = tested on: SK-MEL-2
[50] = tested on: OVCAR-5
[51] = tested on: MOLT-4
[52] = tested on: A498
[53] = tested on: PC-3
[54] = tested on: HOP-62
[55] = tested on: MDA-N
[56] = tested on: NCI-H226
[57] = tested on: Malme-3M
[58] = tested on: LOX IMVI
[59] = tested on: 786-0

SMILES: CCOC(=O)/C(=N/Nc1ccc(C)cc1)N1C(=S)N(C)N=C(C)C=C1S
- GI50 [1]: 75 µM (inactive)
- GI50 [2]: > 100 µM (inactive)
- GI50 [3]: > 100 µM (inactive)
- GI50 [4]: > 100 µM (inactive)
- GI50 [5]: > 100 µM (inactive)
- GI50 [6]: > 100 µM (inactive)
- GI50 [7]: 32.7 µM (inactive)
- GI50 [8]: > 100 µM (inactive)
- GI50 [9]: > 100 µM (inactive)
- GI50 [10]: > 100 µM (inactive)
- GI50 [11]: > 100 µM (inactive)
- GI50 [12]: 45.7 µM (inactive)
- GI50 [13]: > 100 µM (inactive)
- GI50 [14]: 33.8 µM (inactive)
- GI50 [15]: > 100 µM (inactive)
- GI50 [16]: 55.6 µM (inactive)
- GI50 [17]: > 100 µM (inactive)
- GI50 [18]: > 100 µM
- GI50 [19]: 49.5 µM (inactive)
- GI50 [20]: > 100 µM (inactive)
- GI50 [21]: > 100 µM (inactive)
- GI50 [22]: > 100 µM (inactive)
- GI50 [23]: 69.8 µM (inactive)
- GI50 [24]: 94.4 µM (inactive)
- GI50 [25]: 23.1 µM (inactive)
- GI50 [26]: > 100 µM (inactive)
- GI50 [27]: 77.1 µM (inactive)
- GI50 [28]: > 100 µM (inactive)
- GI50 [29]: > 100 µM (inactive)
- GI50 [30]: 25.7 µM (inactive)
- GI50 [31]: > 100 µM (inactive)
- GI50 [32]: 19.1 µM (inactive)
- GI50 [33]: > 100 µM (inactive)
- GI50 [34]: > 100 µM (inactive)
- GI50 [35]: > 100 µM (inactive)
- GI50 [36]: 29.3 µM (inactive)
- GI50 [37]: > 100 µM (inactive)
- GI50 [38]: > 100 µM (inactive)
- GI50 [39]: > 100 µM (inactive)
- GI50 [40]: > 100 µM (inactive)
- GI50 [41]: 41.7 µM (inactive)
- GI50 [42]: > 100 µM (inactive)
- GI50 [43]: 24.1 µM (inactive)
- GI50 [44]: > 100 µM (inactive)
- GI50 [45]: > 100 µM (inactive)
- GI50 [46]: > 100 µM (inactive)
- GI50 [47]: > 100 µM (inactive)
- GI50 [48]: > 100 µM (inactive)
- GI50 [49]: 58.1 µM (inactive)
- GI50 [50]: > 100 µM (inactive)
- GI50 [51]: > 100 µM (inactive)

SMILES: Cn1c(=O)c2c(ncn2CCNC(CO)C(O)c2ccc([N+](=O)[O-])cc2)n(C)c1=O (centres undefined)
- GI50 [52]: > 100 µM (inactive)
- GI50 [53]: > 100 µM (inactive)
- GI50 [1]: > 100 µM (inactive)
- GI50 [2]: > 100 µM (inactive)
- GI50 [54]: > 100 µM (inactive)
- GI50 [3]: > 100 µM (inactive)
- GI50 [4]: > 100 µM (inactive)
- GI50 [5]: > 100 µM (inactive)
- GI50 [6]: > 10 µM (inactive)
- GI50 [7]: > 100 µM (inactive)
- GI50 [8]: > 100 µM (inactive)
- GI50 [9]: > 100 µM (inactive)
- GI50 [10]: > 10 µM (inactive)
- GI50 [11]: > 100 µM (inactive)
- GI50 [12]: > 100 µM (inactive)
- GI50 [13]: > 100 µM (inactive)
- GI50 [14]: > 100 µM (inactive)
- GI50 [15]: > 100 µM (inactive)
- GI50 [16]: > 100 µM (inactive)
- GI50 [55]: > 100 µM (inactive)
- GI50 [17]: > 100 µM (inactive)
- GI50 [18]: > 100 µM
- GI50 [19]: > 100 µM (inactive)
- GI50 [20]: > 100 µM (inactive)
- GI50 [21]: > 100 µM (inactive)
- GI50 [22]: > 100 µM (inactive)
- GI50 [23]: > 100 µM (inactive)
- GI50 [24]: > 100 µM (inactive)
- GI50 [25]: > 100 µM (inactive)
- GI50 [26]: > 100 µM (inactive)
- GI50 [56]: > 100 µM (inactive)
- GI50 [27]: > 100 µM (inactive)
- GI50 [28]: > 100 µM (inactive)
- GI50 [29]: > 100 µM (inactive)
- GI50 [30]: > 10 µM (inactive)
- GI50 [31]: > 100 µM (inactive)
- GI50 [32]: > 100 µM (inactive)
- GI50 [34]: > 100 µM (inactive)
- GI50 [35]: > 100 µM (inactive)
- GI50 [37]: > 100 µM (inactive)
- GI50 [38]: > 100 µM (inactive)
- GI50 [39]: 5.64 µM (inactive)
- GI50 [40]: > 10 µM (inactive)
- GI50 [42]: > 100 µM (inactive)
- GI50 [43]: > 100 µM (inactive)
- GI50 [57]: > 100 µM (inactive)
- GI50 [44]: > 100 µM (inactive)
- GI50 [45]: > 100 µM (inactive)
- GI50 [46]: > 100 µM (inactive)
- GI50 [58]: > 100 µM (inactive)
- GI50 [59]: > 100 µM (inactive)
- GI50 [47]: > 100 µM (inactive)
- GI50 [48]: > 100 µM (inactive)
- GI50 [49]: > 100 µM (inactive)
- GI50 [51]: > 100 µM (inactive)

SMILES: COC(=O)[C@H](Cc1ccc(O)c(Br)c1)NC(=O)[C@H](Cc1ccc(O)cc1)NC(=O)OC(C)(C)C (Boc-Tyr-[Tyr(3-Br)]-OMe)
- GI50 [52]: > 100 µM (inactive)
- GI50 [53]: > 100 µM (inactive)
- GI50 [1]: 19.9 µM (inactive)
- GI50 [2]: 37.3 µM (inactive)
- GI50 [54]: > 100 µM (inactive)
- GI50 [3]: 20.7 µM (inactive)
- GI50 [4]: 78.5 µM (inactive)
- GI50 [5]: 33.1 µM (inactive)
- GI50 [6]: 31.6 µM (inactive)
- GI50 [8]: 29 µM (inactive)
- GI50 [10]: 37 µM (inactive)
- GI50 [11]: 37.7 µM (inactive)
- GI50 [12]: > 100 µM (inactive)
- GI50 [13]: 19.2 µM (inactive)
- GI50 [14]: 48.3 µM (inactive)
- GI50 [15]: > 100 µM (inactive)
- GI50 [16]: > 100 µM (inactive)
- GI50 [55]: > 100 µM (inactive)
- GI50 [17]: 28.7 µM (inactive)
- GI50 [18]: 21.6 µM
- GI50 [19]: 28.6 µM (inactive)
- GI50 [20]: 23.8 µM (inactive)
- GI50 [21]: 43.8 µM (inactive)
- GI50 [22]: > 100 µM (inactive)
- GI50 [23]: > 100 µM (inactive)
- GI50 [24]: 27.4 µM (inactive)
- GI50 [25]: 35.2 µM (inactive)
- GI50 [26]: 23 µM (inactive)
- GI50 [56]: > 100 µM (inactive)
- GI50 [27]: > 100 µM (inactive)
- GI50 [28]: 28.4 µM (inactive)
- GI50 [29]: 45.6 µM (inactive)
- GI50 [30]: > 100 µM (inactive)
- GI50 [31]: 39.9 µM (inactive)
- GI50 [32]: > 100 µM (inactive)
- GI50 [33]: 61.9 µM (inactive)
- GI50 [34]: > 100 µM (inactive)
- GI50 [36]: 92 µM (inactive)
- GI50 [37]: 34.6 µM (inactive)
- GI50 [38]: 31.3 µM (inactive)
- GI50 [39]: 20.8 µM (inactive)
- GI50 [40]: 42.6 µM (inactive)
- GI50 [42]: 29.8 µM (inactive)
- GI50 [57]: 24.5 µM (inactive)
- GI50 [44]: 32.4 µM (inactive)
- GI50 [46]: 44.6 µM (inactive)
- GI50 [58]: 22.5 µM (inactive)
- GI50 [59]: 41.3 µM (inactive)
- GI50 [47]: 40.6 µM (inactive)
- GI50 [48]: > 100 µM (inactive)
- GI50 [49]: 37 µM (inactive)
- GI50 [50]: > 100 µM (inactive)
- GI50 [51]: 48.2 µM (inactive)
